Values quoted from earlier work, collected in PMC6499206, “Quantification of Volatile Metabolites Derived From Garlic (Allium sativum) in Human Urine” (Frontiers in Nutrition, 2019).

Tested on: cardiac hypertrophy
Set-up: method as in PMID 28194108
Details: rats; by increasing Na+/K+-ATPase; cited from earlier work

| SMILES | effect on cardiac hypertrophy |
| --- | --- |
| C=CC[S+](C)[O-] (centres unmarked) [AMSO, allyl methyl sulfoxide] | attenuated cardiac hypertrophy |
| C=CCSC [AMS, allyl methyl sulfide] | attenuated cardiac hypertrophy |
